# Assay results: patent publication US10982337B2, “Corrosion inhibition” (SCHLUMBERGER TECHNOLOGY CORPORATION, priority 2015, dated 2021)
# Tests used:
# [1] = Corrosion weight loss test on steel coupons in HCl; design: Pitting Index: scale not given here
# Description: (§1) Such “acceptable” levels of corrosion are application-specific.
# [2] = Corrosion weight loss test on steel coupons in HCl
# Description: Experiments were carried out with coupons of the following steels: • 22Cr125 also designated 2205, a duplex alloy steel which is an iron-chromium-nickel-molybdenum alloy, used (among other things) to fabricate casing. • HS80™ (TradeMark of TENARIS), a low carbon steel used to fabricate coiled tubing. • N80, a medium carbon steel used to fabricate borehole casing. • 13Cr80, an alloy steel containing 13 wt % chromium without nickel, also used to fabricate borehole casing.
# (1) Metal Type: Duplex Stainless Steel 22Cr125 Casing (2205 b6); 4 mol/L HCl, T=80° C., 3 Hours Exposure
# [3] = Corrosion weight loss test on steel coupons in HCl; design: Pitting Index: scale not given here; remark: listed apart in the source
# Description: as §1
# [4] = Corrosion weight loss test on steel coupons in HCl; design: Pitting Index: scale not given here; remark: listed apart in the source
# Description: as §1
# [5] = Solubility in hydrochloric acid solutions; assay type: physicochemical; conditions: compared with NMTHQ
# Description: As a result, a surfactant is required to solubilise NTHQ for corrosion testing purposes. The surfactant used in this example is P2393, a polyoxyethylene tridecyl ether, C13H27(OCH2CH2)nOH, where n=10.
# As a result, a surfactant is required to solubilise NTHQ for corrosion testing purposes. As for example 5 (NTHQ), the surfactant used to solubilise NCOTHQ is P2393, a polyoxyethylene tridecyl ether, C13H27(OCH2CH2)nOH, where n=10.
# [6] = Rotating Cylinder Electrode electrochemistry, charge transfer resistance; conditions: 5 mM inhibitor, 10 mM KI, 4 mol/L HCl, 2000 rpm, 80° C.; FIG. 6
# Description: (§2) EIS can be used to monitor the corrosion rate of a system. The parameter of interest is the charge transfer resistance, Rct, which can be thought of the ‘resistance’ to corrosion. A metal test piece is used as the working electrode in a three-electrode electrochemical cell with the corrosive solution as electrolyte. Impedance data is obtained by applying a small alternating voltage to the working electrode and measuring the resulting current to obtain a value of impedance. This is done at a range of frequencies. Then, in order to extract the parameter of interest, the metal/inhibitor/electrolyte interfaces are modelled as an electrical equivalent circuit and the theoretical impedance is fitted to the data. […] Charge transfer resistance, Rct, is measured. Charge transfer resistance, Rct is a measure for corrosion resistance, and is inversely proportional to corrosion rate (CR). Therefore 1/Rct is proportional to CR.
# [7] = as above; conditions: 5 mM inhibitor, 10 mM KI, 4 mol/L HCl, 2000 rpm, 80° C.; FIG. 6; remark: listed apart in the source
# Description: as §2
# [8] = 0.1542 wt % (5.13 mmol/L), KI 0, 2205 (b9), 5 mL 2-butoxyethanol in 200 mL 4 mol/L HCl
molecule,measurement,setting,value
c1ccc2c(CN3CCC[C@H]4CCCC[C@@H]43)cccc2c1 [4aR-8aS-NMDHQ],Pitting Index,"[1]; 0.3098 wt % (11.09 mmol/L), KI 0",1
same,Pitting Index,"[2]; 0.3095 wt % (11.08 mmol/L), KI 0, 2205 (b8)",1
same,Pitting Index,"[3]; 0.3076 wt % (11.01 mmol/L), KI 0, 13Cr",2
same,Pitting Index,"[4]; 0.3087 wt % (11.05 mmol/L), KI 0",2
"c1ccc2c(CNCCc3c[nH]c4ccccc34)cccc2c1 [HINNME, 2-(1H-indol-3-yl)-N-(naphthalene-1-ylmethyl)ethan-1-amine]",Pitting Index,"[2]; 0.1500 wt % (4.99 mmol/L) + KI 20 mmol/L, 2205 (b9), 5 mL 2-butoxyethanol in 200 mL 4 mol/L HCl",0
same,Pitting Index,[2]; [8],2
"[I-].[K+] [KI, potassium iodide, reference compound]",Pitting Index,"[1]; KI 10 mmol/L alone, no NMTHQ",5
same,Pitting Index,"[2]; KI 10 mmol/L alone, no organic inhibitor, 2205 (b5)",5
same,Pitting Index,"[2]; KI 20 mmol/L alone, no organic inhibitor, 2205 (b5), 4 mol/L HCl, 80° C., 3 hours",5
same,Pitting Index,"[3]; KI 10 mmol/L alone, no NMTHQ",5
same,Pitting Index,"[4]; KI 10 mmol/L alone, no NMTHQ",2
"O=C(c1cccc2ccccc12)N1CCCc2ccccc21 [NCOTHQ, (3,4-dihydroquinolin-1(2H)-yl)(naphthalene-1-yl)methanone]",solubility in hydrochloric acid solutions (in words),[5],significantly less soluble than NMTHQ
"c1ccc2c(CN3CCCC4CCCCC43)cccc2c1 (stereo not drawn) [NMDHQ, 1-(naphthalen-1-ylmethyl)decahydroquinoline]",Pitting Index,"[1]; 0.3068 wt % (10.98 mmol/L), KI 0",0
same,Pitting Index,"[2]; 0.1414 wt % (5.0 mmol/L) + KI 10 mmol/L, 2205 (b8)",0
same,Pitting Index,"[2]; 0.1414 wt % (5.0 mmol/L) + KI 20 mmol/L, 2205 (b8)",0
same,Pitting Index,"[2]; 0.3088 wt % (11.05 mmol/L), KI 0, 2205 (b8)",1
same,Pitting Index,"[3]; 0.3094 wt % (11.07 mmol/L), KI 0, 13Cr",2
same,Pitting Index,"[4]; 0.3061 wt % (10.95 mmol/L), KI 0",2
"NCCc1cn(Cc2cccc3ccccc23)c2ccccc12 [NMHIE, 2-(1-(Naphthalene-1ylmethyl)-1H-indol-3-yl)ethan-1-amine]",Pitting Index,"[2]; 0.1500 wt % (4.99 mmol/L) + KI 20 mmol/L, 2205 (b9), 0.5 wt % P2393 in 4 mol/L HCl",0
same,Pitting Index,"[2]; 0.1542 wt % (5.13 mmol/L), KI 0, 2205 (b9), 0.5 wt % P2393 in 4 mol/L HCl",5
same,Pitting Index,[2]; [8],3
"c1ccc2c(c1)CCN2Cc1cccc2ccccc12 [NMI, 1-(naphthalen-1-ylmethyl)indoline]",Pitting Index,"[2]; 0.1304 wt % (5.03 mmol/L), KI 0, 2205 (b9)",3
same,Pitting Index,"[2]; 0.1308 wt % (5.04 mmol/L) + KI 20 mmol/L, 2205 (b9)",0
"c1ccc2c(CN3CCOCC3)cccc2c1 [NMM, 4-(naphthalene-1-ylmethyl)morpholine]",Pitting Index,"[2]; 0.1397 wt % (5.04 mmol/L) + KI 20.12 mmol/L, 2205 (b9)",2
same,Pitting Index,"[2]; 0.1402 wt % (5.05 mmol/L), KI 0, 2205 (b9)",5
c1ccc2c(c1)CCN(Cc1ccc3ccccc3c1)C2 [NMTHisoQ],Pitting Index,"[2]; 0.1366 wt % (5.00 mmol/L) + KI 20 mmol/L, 2205 (b5), 4 mol/L HCl, 80° C., 3 hours",0
same,Pitting Index,"[2]; 0.1367 wt % (5.00 mmol/L), KI 0, 2205 (b5), 4 mol/L HCl, 80° C., 3 hours",1
"c1ccc2c(c1)CCCN2c1cccc2ccccc12 [NTHQ, 1-(naphthalen-1-yl)-1,2,3,4-tetrahydroquinoline]",solubility in hydrochloric acid solutions (in words),[5],significantly less soluble than NMTHQ
same,Pitting Index,"[2]; 11.00 mmol/L + additive P2393, 0.5 wt %, 2205 (b5)",3
same,Pitting Index,"[4]; 11.00 mmol/L + additive P2393, 0.5 wt %",1
"c1ccc2ncccc2c1 [Quinoline, reference compound]",Pitting Index,"[2]; 0.1421 wt % (11.00 mmol/L), 2205 b6, 4 mol/L HCl, 80° C., 3 hours",6
"naphthylmethylquinolinium chloride [NMQCl, reference compound]",Pitting Index,"[1]; 0.1534 wt % (5.02 mmol/L), 4 mol/L HCl, 80° C., 3 hours",3
same,Pitting Index,"[1]; 0.3386 wt % (11.07 mmol/L), 4 mol/L HCl, 80° C., 3 hours",0
same,Pitting Index,"[1]; 0.3394 wt % (11.10 mmol/L), 4 mol/L HCl, 80° C., 3 hours",0
same,Pitting Index,"[2]; 0.123 wt % (4.03 mmol/L), 2205 b6, 4 mol/L HCl, 80° C., 3 hours",4
same,Pitting Index,"[2]; 0.322 wt % (10.54 mmol/L), 2205 b6, 4 mol/L HCl, 80° C., 3 hours",0
same,Pitting Index,"[2]; 0.612 wt % (20.00 mmol/L), 2205 b6, 4 mol/L HCl, 80° C., 3 hours",0
same,"1/Rct (proportional to corrosion rate), NMHQ compared with NMQCl",[6],very similar results
same,Pitting Index,"[3]; 0.1545 wt % (5.05 mmol/L), 4 mol/L HCl, 80° C., 3 hours",5
same,Pitting Index,"[3]; 0.3466 wt % (11.33 mmol/L), 4 mol/L HCl, 80° C., 3 hours",0
same,"1/Rct (proportional to corrosion rate), NMHQ compared with NMQCl",[7],very similar results
same,Pitting Index,"[4]; 0.0015 wt % (0.05 mmol/L), 4 mol/L HCl, 80° C., 3 hours",5
same,Pitting Index,"[4]; 0.06225 wt % (2.04 mmol/L), 4 mol/L HCl, 80° C., 3 hours",0
same,Pitting Index,"[4]; 0.1531 wt % (5.01 mmol/L), 4 mol/L HCl, 80° C., 3 hours",0
same,Pitting Index,"[4]; 0.3366 wt % (11.01 mmol/L), 4 mol/L HCl, 80° C., 3 hours",0
